# Test results: patent publication US9533978B2 (AstraZeneca AB, priority 2009, dated 2017)
# Biological target: T1, Recombinant human TLR7 (Homo sapiens, UniProt Q9NYK1)
# T1 construct: expressed in transfected cells; host or cells: HEK293 cell line stably expressing the pNiFty2-SEAP reporter plasmid; TLR7 in vector pUNO, blasticidin selection
# T1 sequence (Q9NYK1 27-1049): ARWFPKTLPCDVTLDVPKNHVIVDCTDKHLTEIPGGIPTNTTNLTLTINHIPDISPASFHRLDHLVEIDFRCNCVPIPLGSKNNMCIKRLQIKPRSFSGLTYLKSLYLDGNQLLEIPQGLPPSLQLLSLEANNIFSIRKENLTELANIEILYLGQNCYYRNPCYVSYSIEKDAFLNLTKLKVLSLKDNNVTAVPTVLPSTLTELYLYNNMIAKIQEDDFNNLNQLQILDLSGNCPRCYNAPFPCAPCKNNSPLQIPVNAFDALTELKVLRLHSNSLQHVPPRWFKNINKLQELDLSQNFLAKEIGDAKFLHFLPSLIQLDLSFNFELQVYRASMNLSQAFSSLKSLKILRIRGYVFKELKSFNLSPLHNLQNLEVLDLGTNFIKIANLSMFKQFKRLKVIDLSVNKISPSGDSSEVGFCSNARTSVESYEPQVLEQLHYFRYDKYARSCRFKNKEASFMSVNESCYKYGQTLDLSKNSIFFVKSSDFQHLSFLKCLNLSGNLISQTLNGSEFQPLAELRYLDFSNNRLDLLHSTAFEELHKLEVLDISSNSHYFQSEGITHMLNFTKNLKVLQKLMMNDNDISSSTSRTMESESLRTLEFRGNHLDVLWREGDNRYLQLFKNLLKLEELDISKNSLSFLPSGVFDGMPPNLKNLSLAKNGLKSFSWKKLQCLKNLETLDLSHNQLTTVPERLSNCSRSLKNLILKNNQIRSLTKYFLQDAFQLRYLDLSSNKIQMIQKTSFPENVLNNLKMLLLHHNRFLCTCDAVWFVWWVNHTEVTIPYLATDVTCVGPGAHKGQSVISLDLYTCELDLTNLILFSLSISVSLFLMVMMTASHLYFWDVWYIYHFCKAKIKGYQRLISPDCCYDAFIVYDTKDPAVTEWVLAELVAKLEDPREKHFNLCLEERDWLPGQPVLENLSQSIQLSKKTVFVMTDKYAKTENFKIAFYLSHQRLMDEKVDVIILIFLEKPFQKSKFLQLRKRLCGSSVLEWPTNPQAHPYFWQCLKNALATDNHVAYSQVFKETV
# Experiment: Human TLR7 assay (HEK293 SEAP reporter)
# Assay type: cell-based
# Details: degree of TLR7 activation; SEAP induction in HEK293 cells stably expressing recombinant human TLR7 and pNiFty2-SEAP reporter, overnight incubation at 37° C., 0.1% (v/v) DMSO
# Experimental: The ability of compounds to activate TLR7 in vitro was assessed using the human TLR7 assay described below.
# Recombinant human TLR7 was stably expressed in a HEK293 cell line already stably expressing the pNiFty2-SEAP reporter plasmid; integration of the reporter gene was maintained by selection with the antibiotic zeocin. The most common variant sequence of human TLR7 (represented by the EMBL sequence AF240467) was cloned into the mammalian cell expression vector pUNO and transfected into this reporter cell-line. Transfectants with stable expression were selected using the antibiotic blasticidin. In this reporter cell-line, expression of secreted alkaline phosphatase (SEAP) is controlled by an NFkB/ELAM-1 composite promoter comprising five NFkB sites combined with the proximal ELAM-1 promoter. TLR signaling leads to the translocation of NFkB and activation of the promoter results in expression of the SEAP gene. TLR7-specific activation was assessed by determining the level of SEAP produced following overnight incubation of the cells at 37° C. with the standard compound in the presence of 0.1% (v/v) dimethylsulfoxide (DMSO). Concentration dependent induction of SEAP production by compounds was expressed as the concentration of compound which produced half of the maximal level of SEAP induction for that compound (EC50).
row,EC50,Structure (SMILES)
1,2.51 nM,"CCCCCNc1nc(N)nc(C)c1Cc1ccc(OCCCN(C)C)cc1OC [Example 11, 5-(4-(3-(Dimethylamino)propoxy)-2-methoxybenzyl)-6-methyl-N^4-pentylpyrimidine-2,4-diamine]"
2,79.4 nM,"CCCCCNc1nc(N)nc(C)c1Cc1ccc(OCCCN2CCN(C)CC2)cc1 [Example 10, 6-Methyl-5-(4-(3-(4-methylpiperazin-1-yl)propoxy)benzyl)-V-pentylpyrimidine-2,4-diamine]"
3,126 nM,"CCCCCNc1nc(N)nc(C)c1Cc1ccc(OCCN2CCCCC2)cc1 [Example 5, 6-Methyl-N^4-pentyl-5-(4-(2-(piperidin-1-yl)ethoxy)benzyl)pyrimidine-2,4-diamine]"
4,501 nM,"CCCCCNc1nc(N)nc(C)c1Cc1ccc(OCCCO)cc1 [Example 8, 3-(4-((2-Amino-4-methyl-6-(pentylamino)pyrimidin-5-yl)methyl)-phenoxy)propan-1-ol]"
5,1260 nM,CCCCCNc1nc(N)nc(C)c1Cc1ccccc1OCCCN(C)C [Example 22]
6,794 nM,CCCCCNc1nc(N)nc(C)c1Cc1cccc(OCCCN(C)C)c1 [Example 25]
7,50.1 nM,"CCCCCNc1nc(N)nc(C)c1Cc1cc(C(=O)OC)ccc1OC [Example 16, Methyl 3-((2-amino-4-methyl-6-(pentylamino)pyrimidin-5-yl)methyl)-4-methoxybenzoate]"
